Measurements as given in a melting point compilation (Tetko et al.; mined from patent text by program, amines drawn as free bases though some values may be those of a salt).

First: CC(=O)n1c(SC(F)(F)F)cc(-c2ccc(F)cc2)c1-c1ccc(F)cc1
Second: NC(=O)n1ccc(-c2ccc(Oc3ccc(F)cc3)cc2)n1
The melting point of the first is lower: 75 to 76 °C for the first, 141 to 143 °C for the second.

First: COC1(c2ccc(CCc3cc(F)cc(F)c3NC(=O)C(C)(C)C)cc2)CCOCC1
Second: Oc1ccc(CCCc2ccc(O)cc2O)cc1
The melting point of the first is higher: 147 to 148 °C for the first, 92 to 93 °C for the second.

First: CCc1c(C)nc2ccc(Cl)cn2c1=O
Second: CN1C(=O)Cn2cnnc2-c2cc(Cl)ccc21
The melting point of the first is lower: 114 to 116 °C for the first, 272 to 274 °C for the second.

`COC(=O)[C@H](O)[C@@H](NC(=O)OC(C)(C)C)c1ccc(N(C)C)cc1` and `COC(=O)C(c1ccccc1Cl)N1CCc2sc(OC(=O)C(C)(C)C)cc2C1` (stereo unspecified) cannot be ordered by melting point: 120 °C for the first, 118 to 120 °C for the second.

First: CSC=CC(C)(C)C(=O)Nc1ccc(Cl)cc1
Second: COC(=O)c1ccc(C#CC#C[Si](C)(C)C)cc1
The melting point of the first is higher: 105 to 106 °C for the first, 67 to 68 °C for the second.

Compared with `CCOC(=O)c1ncc(Cl)cc1N`, `CCC(=O)c1cc(Cl)c(C)cc1OC` is lower in melting point: 140 to 142 °C for the first, 79 °C for the second.

First: CNC(=O)C(Cc1ccccc1)NC(=O)C(CC(C)C)C(S)CC(=O)OC (stereo unspecified)
Second: CC(C)c1nc(CN(C)C(=O)N[C@@H](C)C(=O)N[C@@H](Cc2ccccc2)C[C@H](O)[C@H](Cc2ccccc2)NC(=O)OCc2cncs2)cs1
The melting point of the first is higher: 169 to 171 °C for the first, 56 to 58 °C for the second.

First: C=C(C)n1c(=O)n(CCN2CCC(Cc3c[nH]c4ccc(F)cc34)CC2)c2ccccc21
Second: CN1CCC(c2n[nH]c3ccc(F)cc23)CC1
The melting point of the first is lower: 132 °C for the first, 202 to 204 °C for the second.

First: COc1cc(-c2c(Cl)c(CN3C(=O)CCC3=O)nc3sc4c(c23)CCNC4)ccc1OC(C)C
Second: COc1ccc(Cc2nc3cc(Cl)cc(Br)c3o2)cc1OC
The melting point of the first is higher: 175 to 176 °C for the first, 123 to 124 °C for the second.

First: Cc1ccc(C#Cc2cccc(N)c2)cc1
Second: CCOC(=O)CN(c1c([N+](=O)[O-])cc([N+](=O)[O-])c2ccccc12)S(=O)(=O)c1ccc(C)cc1
The melting point of the first is lower: 88 °C for the first, 106 to 107 °C for the second.

Compared with `O=C1c2cccc([N+](=O)[O-])c2C(=O)N1c1ccc(O)cc1`, `O=[N+]([O-])c1ccccc1/C=C/c1ccc(Cl)cc1[N+](=O)[O-]` is lower in melting point: 202 °C for the first, 158 to 159 °C for the second.

First: CCCc1oc(-c2ccccc2)nc1COc1ccc(CO)cc1
Second: Cc1c(/C=N/OCCCOc2ccc(CC(=O)O)cc2)c2ccccc2n1C
The melting point of the first is lower: 79 to 80 °C for the first, 106 to 108 °C for the second.

Compared with `CN(C)c1ccc(S(N)(=O)=O)cn1`, `Cc1cc(=O)oc2nc(N(C)C)ccc12` is higher in melting point: 133 to 138 °C for the first, 157 to 160 °C for the second.

First: COCc1cn(-c2cccc(C(F)(F)F)c2)nc(-c2ccnn2-c2ccccc2)c1=O
Second: Cc1nc(-c2cccc(C(F)(F)F)c2)ccc1CO
The melting point of the first is higher: 137 to 139 °C for the first, 73 to 75 °C for the second.

Compared with `Cc1nc(-c2cnn(-c3c(Cl)cc(C(F)(F)F)cc3Cl)n2)[nH]c1S(=O)(=O)Cl`, `FC(F)(F)c1ccc2nc(N3CCN(c4ncncc4Cl)CC3)[nH]c2c1` is lower in melting point: 254 to 255 °C for the first, 66.6 to 66.7 °C for the second.

First: COc1ccc(CN2C(=O)C(C)(c3cc(N(C)C(=O)CN(C)C)ccc3Cl)c3cc(Cl)ccc32)c(OC)c1 (stereo unspecified)
Second: COc1cccc([C@H]2O[C@H](CC(=O)NCc3cccc(CCC(=O)O)c3)C(=O)N(CC(C)(C)CO)c3ccc(Cl)cc32)c1OC
The melting point of the first is lower: 104 °C for the first, 177 to 178 °C for the second.

`C[C@@H]1C[C@H](OC(=O)C(C)(C)Oc2ccc(C(=O)c3ccc(Cl)cc3)cc2)CC(C)(C)C1` (relative stereo) and `O=C(c1ccc(Cl)cc1)C1(c2ccccc2Cl)CO1` (stereo unspecified) cannot be ordered by melting point: 65 °C for the first, 65 to 66 °C for the second.

First: Oc1ccc(Cl)cc1CN1COC(c2ccc(C(F)(F)F)cc2)=N1
Second: CC(CO)(CO)NS(=O)(=O)c1cc(NC(=O)c2cnn3c(C(F)(F)F)cc(-c4ccc(C(F)(F)F)cc4)nc23)c(Cl)s1
The melting point of the first is lower: 144 to 145 °C for the first, 201 °C for the second.

Compared with `CCCC(=O)OC(C)OC(=O)NC1(C(=O)O)CC1` (stereo unspecified), `CCCCCC(=O)Nc1ccc2nnc(C(=O)OCC)c(O)c2c1` is higher in melting point: 90.4 to 93.4 °C for the first, 265 to 266 °C for the second.

First: CCOCC(=O)C1CCC2C3CCC4CC(O)CCC4(C)C3C(=O)CC12C (stereo unspecified)
Second: CCC12CCC3C4=C(CC(OC)=CC4)C(C)CC3C1CCC2=O (stereo unspecified)
The melting point of the first is higher: 129 to 131 °C for the first, 118 to 125 °C for the second.

Compared with `COC(=O)C=C1CC(=O)N(c2ccccc2)c2cc(Cl)ccc2N1`, `O=C(COc1ccc(Cl)cc1)N1Cc2cccn2Cc2ccccc21` is lower in melting point: 199 to 201 °C for the first, 120 to 122 °C for the second.

Compared with `CCc1cccc(N(C(=O)CCC(=O)O)c2cc(C(C)(C)C)c(O)c(C(C)(C)C)c2)c1`, `COc1c(-c2ccc3cc(NS(C)(=O)=O)ccc3c2)cc(NC(N)=O)cc1C(C)(C)C` is higher in melting point: 150 to 152 °C for the first, greater than 300 °C for the second.

Compared with `CCn1cc(C(=O)O)c(=O)c2cc(OC)c(C3CCCCC3)cc21`, `Cn1cc(C2=C(C3CCCCC3)C(=O)NC2=O)c2ccccc21` is higher in melting point: 176 to 178 °C for the first, 224 to 225 °C for the second.

First: CS(=O)(=O)N(Cc1cccnc1)c1ccc(Cl)cc1Cl
Second: COc1ccc(C(=O)CN(C)C(=O)/C=C/c2cccnc2)cc1OC
The melting point of the first is lower: 180 to 186 °C for the first, 193 to 194 °C for the second.

Compared with `O=S1(=O)c2cccc3cccc(c23)N1CCN1CCN(c2noc3ccccc23)CC1`, `c1cnc2[nH]cc(CN3CCN(c4ccc5[nH]ccc5c4)CC3)c2c1` is higher in melting point: 148 °C for the first, 232 to 233 °C for the second.

First: COC(=O)C(=O)c1ccc(OCCOc2ccccc2)cc1
Second: COc1ccc(-c2cc(-c3ccccc3)[nH]c2C(=O)Nc2ccc(C(=O)NO)o2)cc1
The melting point of the first is lower: 79 to 81 °C for the first, 160 to 162 °C for the second.

First: COc1c(OCc2ccccc2)ccc2cc[nH]c12
Second: COc1cc2c3ccc(OC)c(OC)c3c(=O)n(Cc3ccccc3)c2cc1OC
The melting point of the first is lower: 66 to 67 °C for the first, 183 to 184 °C for the second.

First: Cc1csc(C)c1NCc1nnc(S)n1C
Second: Sc1nnnn1CCCc1ccccc1
The melting point of the first is higher: 184 to 187 °C for the first, 75 to 76 °C for the second.

First: O=C(O)CCCCCCCCCCCCCCCBr
Second: CCCc1c(OCCCCCCc2cccc(OCCCCCC(=O)O)c2CCC(=O)O)ccc2c1OCCC2=O
The melting point of the first is lower: 67 to 69 °C for the first, 86 to 88 °C for the second.

First: FC(F)(F)n1cc(Br)cn1
Second: O=[N+]([O-])c1ccc(F)cc1OCC(F)(F)F
The melting point of the first is lower: 4 °C for the first, 44 to 45 °C for the second.

First: CCNC(=O)NCC1CC1c1cccn2nc(C)cc12 (stereo unspecified)
Second: CC(=O)NCC1CN(c2ccc(S(=O)(=O)CCO)c(F)c2)C(=O)O1 (stereo unspecified)
The melting point of the first is lower: 108 to 110 °C for the first, 162 to 163 °C for the second.

First: C[C@@H](n1cc(Cn2cncn2)nn1)[C@](O)(Cn1cncn1)c1ccc(F)cc1F
Second: O=C(Nc1nnn(CC(F)(F)F)n1)C(c1ccccc1)c1ccccc1
The melting point of the first is higher: 162 to 163 °C for the first, 146 to 148 °C for the second.

Compared with `CC(=O)C(=CNN1C=CC=NC1c1ccncc1)C(C)=O` (stereo unspecified), `CCOC=CC(=O)Nc1cccc(C(=O)OC)c1` is lower in melting point: 182 to 183 °C for the first, 108 to 110 °C for the second.

Compared with `CCCN(CCC)C1Cc2cc3c(=O)[nH]n(Cc4ccccc4)c(=O)c3cc2C1` (stereo unspecified), `CN(C)CCN/C(=C1/Sc2ccccc2C1=O)c1ccccc1` is lower in melting point: 219 to 220 °C for the first, 123 to 125 °C for the second.

First: CCC(=O)NN=C(c1ccc(Cl)cc1)c1ccc(NS(=O)(=O)c2ccccc2)cc1
Second: O=C(c1ccc(Cl)cc1)c1ccc2nc(Cl)cc(CCc3cccc(Cl)c3)c2c1
The melting point of the first is higher: 238 to 240 °C for the first, 180 °C for the second.

First: COc1ccccc1CNc1ccc2c(-c3noc(C)n3)cccc2n1
Second: O=c1nc(-c2ccc(NCc3ccccc3)nc2)sc2ccccc12
The melting point of the first is lower: 122 °C for the first, 194 to 196 °C for the second.

Compared with `CCN(C)c1nsc(NC(=O)NC)c1C(N)=O`, `CCc1cc(Oc2ccc(C(F)(F)F)cc2[N+](=O)[O-])nn1C(=O)NC` is lower in melting point: 165 to 168 °C for the first, 89 to 91 °C for the second.

First: CC1CC(=O)NN=C1c1ccc2c(c1)CCN2 (stereo unspecified)
Second: O=c1[nH]ncc2[nH]c(-c3ccc(OC(F)F)c(OCC4CC4)c3)cc12
The melting point of the first is lower: 187 to 189 °C for the first, 294 to 295 °C for the second.

First: Cc1ccc(S(=O)(=O)n2c(-c3cn(C)c4ccc(O)cc34)cc3cccnc32)cc1
Second: CCOC(=O)Nc1nc(-c2ccccc2)c(-c2nc3ccccc3c(=O)n2-c2ccccc2Cl)s1
The melting point of the first is higher: 256 to 257 °C for the first, 236 to 238 °C for the second.

Compared with `CCOC(C)Oc1ccc2c(c1C=O)OCO2` (stereo unspecified), `COc1ccc(Cl)cc1N1C(=O)CON(C)C1=S` is higher in melting point: 48 to 50 °C for the first, 189 to 191 °C for the second.

First: COC(=O)c1c(O)c2c([nH]c1=O)CCCCC2
Second: COC(=O)C1=C(N)C(=O)NCC1
The melting point of the first is higher: greater than 255 °C for the first, 192 to 194 °C for the second.

First: COc1ccc(Cc2nc(N(C)CCO)c3c(C)c(C#N)sc3n2)cc1OC
Second: CCCCCCOc1ccc(-n2cc(C(=O)OCC)cn2)cc1C#N
The melting point of the first is lower: 62 to 63 °C for the first, 93 to 94 °C for the second.

Compared with `CCN(CC)C(=O)n1ccc(S(=O)(=O)c2cc(Cl)cc(Cl)c2)n1`, `CCCN(C(=S)n1ccnc1)c1ccccc1Cl` is lower in melting point: 103 to 106 °C for the first, 59 to 61 °C for the second.

First: Cc1c(NC(=O)c2ccc(-c3ccc(F)cc3)cc2)ccc2cc(CN3CCCC3CC(C)C)cnc12 (stereo unspecified)
Second: N#Cc1ccc(COc2ccc(-c3ccc(C4Cc5ccccc5C(O)C4)cc3)cc2)cc1 (stereo unspecified)
The melting point of the first is higher: 193 to 196 °C for the first, 172 °C for the second.

Compared with `COCc1cc(C(O)CNCCCCCOCCc2ccc(F)cc2)ccc1O` (stereo unspecified), `COc1cc2c(cc1-c1cc(F)ccc1F)NC(=O)CC(c1cccc(C#N)c1)=N2` is higher in melting point: 86 to 87 °C for the first, 251 °C for the second.

First: CC(=O)OCC(=O)C1(O)CCC2C3CC=C4C=C(OC(C)=O)C=CC4(C)C34OC4CC21C (stereo unspecified)
Second: CC(C)Nc1cccnc1N1CCN(C(=O)c2ccc(C(=O)N(CCO)CCO)cn2)CC1
The melting point of the first is higher: 194 °C for the first, 130 to 132 °C for the second.

Compared with `CCC(CC)c1ccc(Cl)c2nc3n(c12)CCCCN3c1ccc(C(F)(F)F)cc1Br`, `CC1(C)NC(=O)N(c2ccc(C#N)c(C(F)(F)F)c2)C1=O` is higher in melting point: 158 to 160 °C for the first, 210 °C for the second.

First: Nc1nc2ccccc2n1-c1cccc(-n2c(N)nc3ccccc32)c1
Second: COc1cc2c(cn1)OCC21C(=O)N(C(c2ccccc2)c2ccccc2)c2ccccc21 (stereo unspecified)
The melting point of the first is higher: 270 °C for the first, 177 to 178 °C for the second.

First: CCCc1cc(=O)oc2c(C(C)=O)c(O)cc(O)c12
Second: CCCCn1c(=O)c2c(ncn2S(=O)(=O)CCCCl)n(CCCC)c1=O
The melting point of the first is higher: 221 to 224 °C for the first, 71 to 73 °C for the second.

First: NC(N)=NC(=O)Cc1c(-c2ccccc2)csc1-c1ccccc1
Second: c1ccc(Nc2ccc(-c3ccc(N(c4ccccc4)c4ccc(-c5ccccc5)cc4)cc3)cc2)cc1
The melting point of the first is higher: 204 to 206 °C for the first, 127 °C for the second.

`COc1cccc2c1CCCC2N1CCN(C)CC1` (stereo unspecified) gave a melting point of 69 to 71 °C.
